From patent US8299038B2, “Methods and compositions for treating hepatitis C virus” (Idenix Pharmaceuticals, Inc., priority 2000, dated 2012)
Where “and” joins values, the source holds several entries; their conditions need not be identical. Equal values may be shown once.

What was measured:
HCV = conditions: monotherapy, cited from earlier work
[1] = system: BFU-E (human bone marrow cells); experiment: Human bone marrow toxicity BFU-E clonogenic assay; conditions: read-out: IC50 BFU-E, colony formation after 14 to 18 days
Method: (§1) The culture assays for CFU-GM and BFU-E were performed using a bilayer soft agar or methylcellulose method. Drugs were diluted in tissue culture medium and filtered. After 14 to 18 days at 37° C. in a humidified atmosphere of 5% CO2 in air, colonies of greater than 50 cells were counted using an inverted microscope.

[2] = system: CFU-GM (human bone marrow cells); experiment: Human bone marrow toxicity CFU-GM clonogenic assay; conditions: read-out: IC50 CFU-GM, colony formation after 14 to 18 days
Method: as §1

[3] = Bioavailability assay in Cynomolgus monkeys; type: in vivo, cynomolgus monkey; conditions: for Norm AUC: individual monkeys, AUC normalised to dose in mg; for Mean Norm AUC: mean of 3 monkeys
Method: Within 1 week prior to the study initiation, the cynomolgus monkey was surgically implanted with a chronic venous catheter and subcutaneous venous access port (VAP) to facilitate blood collection and underwent a physical examination including hematology and serum chemistry evaluations and the body weight was recorded. […] Each dosing syringe was weighed before dosing to gravimetrically determine the quantity of formulation administered. Urine samples were collected via pan catch at the designated intervals (approximately 18-0 hours pre-dose, 0-4, 4-8 and 8-12 hours post-dosage) and processed.

NC(=O)c1ncn([C@@H]2O[C@H](CO)[C@@H](O)[C@H]2O)n1 [ribavirin, 1-β-D-ribofuranosyl-1-1,2,4-triazole-3-carboxamide]
effect on serum levels of HCV-RNA (HCV; HCV patients): does not lower serum levels of HCV-RNA
patients in whom serum amino transferase levels are reduced to normal (HCV): 40%

C[C@@]1(O)[C@H](O)[C@@H](CO)O[C@H]1n1cnc2c(N)ncnc21 [β-D-2′-CH3-riboA, 2′-C-methylriboadenine]
IC50 [1]: > 100 µM
IC50 [2]: > 100 µM

C[C@@]1(O)[C@H](O)[C@@H](CO)O[C@H]1n1cnc2c(=O)[nH]c(N)nc21 [β-D-2′-CH3-riboG]
IC50 [1]: > 100 µM
CL ([3]; IV 10 mg/kg): 21.3 ± 8 mL/min/kg
Cmax ([3]; IV 10 mg/kg): 6945.6 ± 1886.0 ng/mL
T1/2 ([3]; IV 10 mg/kg): 7.9 ± 5.4 h
Tmax ([3]; IV 10 mg/kg): 0.25 ± 0.00 h
Vss ([3]; IV 10 mg/kg): 2.09 ± 0.54 L/kg
AUC ([3]; IV 10 mg/kg, mean ± spread): 8758.0 ± 4212.9 ng·h/mL
AUC ([3]; IV bolus 10 mg/kg, individual monkeys 1-3, 10 mg/kg): 6079 ng·h/mL and 13614 ng·h/mL and 6581 ng·h/mL
Norm AUC ([3]; IV): 293.4 ng·h/mL/mg and 293.2 ng·h/mL/mg and 268.3 ng·h/mL/mg
Mean Norm AUC ([3]; IV): 284.9 ng·h/mL/mg
Cmax ([3]; PO 10 mg/kg): 217.7 ± 132.1 ng/mL
T1/2 ([3]; PO 10 mg/kg): 10.3 ± 4.1 h
Tmax ([3]; PO 10 mg/kg): 2.00 ± 1.00 h
AUC ([3]; PO 10 mg/kg, mean ± spread): 1166.0 ± 589.6 ng·h/mL
AUC ([3]; PO gavage 10 mg/kg, individual monkeys 1-3, 10 mg/kg): 758 ng·h/mL and 898 ng·h/mL and 1842 ng·h/mL
Norm AUC ([3]; PO): 26.1 ng·h/mL/mg and 29.0 ng·h/mL/mg and 61.3 ng·h/mL/mg
Mean Norm AUC ([3]; PO): 38.8 ng·h/mL/mg
F (oral bioavailability) ([3]; Table 2, PO vs IV mean norm AUC): 13.6%
F ([3]; Table 3, 10 mg/kg PO vs IV): 13.8%
IC50 [2]: > 10 µM
